For test [1], the system named is MRSA. The test can be described thus: Minimum bactericidal concentration (MBC) with and without white light. The following applies: Staphylococcus aureus, light or radiation study. Format: cell-based, S. aureus. As for the experimental part: The bacterial media was inoculated with bacteria and incubated overnight. The bacterial cultures were diluted to 5×10^8 CFU/mL using a McFarland latex turbidity standard (0.5). Compound 1 was diluted with sterile DMSO, which was added to the cell suspension in glass culture tubes. The cells were then incubated for 30 minutes at 37° C. on a rotary shaking incubator at 150 rpm. 500 μL of the treated cell suspension was added to a well on a sterile ceramic drop plate. Non-coherent white light from a Lumacare™ LC-122 unit was used to irradiate the samples. The end of the light probe was placed 3 cm above the sample well, perpendicular to the surface of the sample, and light was applied for 2 minutes (15 seconds light, 15 seconds dark). 200 μL of the irradiated sample was transferred to a 96-well plastic microtiter plate and five ten-fold dilutions were made in the media. 10 μL of each dilution was dripped onto an agar media plate and was allowed to streak down the plate by tilting the plate down. The agar plates were incubated at 37° C. overnight and colony counts were performed to calculate the CFU/mL.
TABLE 14 details the MBC values of compounds 1-6 against MRSA with and without irradiation with white light. Irradiation involved treatment with a LumaCare™ light source at 3 cm from media for 1 min.

In test [2] the test system is HeLa cells. The test can be described thus: Toxicity (IC50) on HeLa cells. Format: cell-based, human. The following applies: cancerous cervical epithelium HeLa cells; for IC50: Homo sapiens. As for the experimental part:
The toxicities of the compounds of the invention were determined for human cancerous cervical epithelium HeLa and normal lung fibroblast WI38 cells. The toxicities of EPIs INF-55 and INF-55Cl were quantified as controls. […] TABLE 2 compares the toxicity of compounds 7-11 on HeLa cells and normal WI38 cells.

Test [3] deals with S. aureus (ATCC 29213). The experiment in a line: MIC against drug sensitive S. aureus. Format: cell-based. The following applies: Staphylococcus aureus, ATCC29213; ATCC 29213; read-out: S. aureus MIC.
Test [4] deals with VRE. The test can be described thus: MIC against VRE. Format: cell-based, Enterococcus faecalis. The method, then:
In a 12×75 mm borosilicate glass culture tube, 1 mL of cell suspension was added. Then, compound 7 was added to the cells, and the samples were mixed using a vortex mixer. […] The samples were incubated overnight at 37° C. on a rotary shaking incubator at 100 rpm.

Test [5] is described as follows: MIC against MRSA isolates. Format: cell-based, S. aureus. To be noted: Staphylococcus aureus. The method, then:
(§1) The MICs of S. aureus ATCC 33591, BAA-44, BAA-1707, BAA-1717, BAA-1720, BAA-1747, BAA-1754, BAA-1761, BAA-1763, BAA-1764, and BAA-1766 were measured using a cell concentration of about 5×10^5 colony forming units (CFU)/mL. In a 96-well microtiter plate, two-fold dilutions were made of each drug (starting with 100 μM) in 100 μL of a cell suspension in trypticase soy broth (TSB). The samples were incubated overnight at 37° C. on a rotary shaking incubator set at 100 revolutions per minute (rpm) and were visually inspected for turbidity. A 20% well-volume of 3-(4,5-dimethylthiazol-2-yl)-2,5-diphenyltetrazolium bromide (MTT reagent, 5 mg/mL) was added, and the samples were incubated for about 20 minutes. The MICs were determined as the lowest concentration at which full visual inhibition was observed by the unaided eye.

The test system of test [6] is MRSA isolates (S. aureus ATCC 33591, BAA-44, BAA-1707, BAA-1717, BAA-1720, BAA-1747, BAA-1754, BAA-1761, BAA-1763, BAA-1764, BAA-1766). The test can be described thus: MIC against MRSA isolates. Format: cell-based. The method, then: as §1
[7] abbreviates: 1 min, LumaCare light source at 3 cm from media for 1 min, read-out: MBC with irradiation.
Where [8] appears, read: no irradiation, read-out: MBC in the dark.
Where [9] appears, read: Enterococcus, TABLE 23, read-out: VRE MIC.
The mark [10] stands for this setting: MRSA (ATCC BAA-44), TABLE 21, read-out: MRSA MIC.
Setting [11] is: Enterococcus, common antibiotics, TABLE 24, read-out: MIC.
Where [12] appears, read: antibiotics, MRSA isolate ATCC BAA-44.
Where [13] appears, read: antibiotics, MRSA isolate ATCC BAA-1717.

Converted amounts (≈) assume the structure as drawn. Read-outs that look alike come from different tables or passages of the source. Marks after values point to notes of the source that are not given here.

By MBC is commonly meant the lowest tested concentration that kills the bacteria rather than only halting them. `C(=C\c1[nH]c2ccccc2c1/C=C/c1ccccc1)/c1ccccc1` [Compound 2]: the MBC in test [1] (setting [7]) was found to be 0.5 µM (≈ 0.161 µg/mL); in test [1] (setting [8]) it was 100 µM (≈ 32.1 µg/mL).

Take `COc1ccc(/C=C/c2[nH]c3ccccc3c2/C=C/c2ccc(OC)cc2)cc1` [Compound 3]: the MBC in test [1] (setting [7]) was found to be 0.5 µM (≈ 0.191 µg/mL); in test [1] (setting [8]), 200 µM (≈ 76.3 µg/mL).

For the molecule `Clc1ccccc1/C=C/c1[nH]c2ccccc2c1/C=C/c1ccccc1Cl` [Compound 5], the minimal bactericidal concentration (MBC) in test [1] (setting [7]) was determined as 0.5 µM (≈ 0.195 µg/mL); in test [1] (setting [8]), 200 µM (≈ 78.1 µg/mL).

For `Clc1cccc(/C=C/c2[nH]c3ccccc3c2/C=C/c2cccc(Cl)c2)c1` [Compound 6], the figures for the minimum bactericidal concentration (MBC) in test [1] (setting [7]) and in test [1] (setting [8]) were 1 µM (≈ 0.39 µg/mL) and 200 µM (≈ 78.1 µg/mL), respectively.

What is called IC50 is the concentration needed to halve the response being measured. High values mean weaker potency, low ones greater potency. In test [2], `Clc1ccc(-c2cc3[nH]c4ccccc4c3cc2-c2ccc(Cl)cc2)cc1` [Compound 13] registered an IC50 of 16.4 ± 1.1 µM.

With `Clc1ccc(Sc2c(-c3ccc(Br)cc3)[nH]c3ccccc23)cc1` [Compound 14], the IC50 in test [2] was found to be 12.2 ± 1.6 µM.

With `Clc1ccc(-c2cc3ccccc3[nH]2)cc1` [Compound 15], the “IC50 HeLa” value in test [2] was “Non-Toxic”.

In the case of `Clc1ccc(Sc2c(-c3ccc(Cl)cc3)[nH]c3ccccc23)cc1` [Compound 16], in test [2], the IC50 was found to be 6.4 ± 1 µM.

Regarding `O=S(=O)(c1ccc(Cl)cc1)c1c(-c2ccc(Cl)cc2)[nH]c2ccccc12` [Compound 18], the IC50 in test [2] came to 14.3 ± 0.7 µM.

The molecule `O=C(c1ccc(Cl)cc1)c1c(-c2ccc(Cl)cc2)[nH]c2ccccc12` [Compound 19] came in with a concentration for half-maximal inhibition (IC50) in test [2] of 35.8 ± 6 µM.

On to `O=[N+]([O-])c1ccc2[nH]c(-c3ccc(Cl)cc3)cc2c1` [Compound 20], for which the “IC50 HeLa” value in test [2] is reported as “Non-Toxic”.

`Clc1ccc(Sc2c(-c3ccc(Cl)cc3)[nH]c3ccc(Cl)cc23)cc1` [Compound 21] came in with an IC50 in test [2] of 8.2 ± 1 µM.

The molecule `Clc1ccc(Oc2c(-c3ccc(Cl)cc3)[nH]c3ccc(Br)cc23)cc1` [Compound 22] showed an IC50 in test [2] of 3.2 ± 0.4 µM.

Consider `Fc1ccc2[nH]c(-c3ccc(Cl)cc3)c(Oc3ccc(Cl)cc3)c2c1` [Compound 23], for which 12.9 ± 3.2 µM corresponded to half-maximal inhibition in test [2] (IC50).

In the case of `COc1ccc2[nH]c(-c3ccc(Cl)cc3)c(Oc3ccc(Cl)cc3)c2c1` [Compound 24], the half-inhibitory concentration (IC50) in test [2] is 23.9 ± 1.8 µM. This IC50 lies about 1.9-fold higher than the previous one.

Molecule `Fc1cccc2c(Oc3ccc(Cl)cc3)c(-c3ccc(Cl)cc3)[nH]c12` [Compound 25] displayed an IC50 in test [2] of 13 ± 3.5 µM.

For `CCOC(=O)c1ccc2[nH]c(-c3ccc(Cl)cc3)c(Oc3ccc(Cl)cc3)c2c1` [Compound 26], in test [2], it took 18.6 ± 1.1 µM to reach half-maximal inhibition (IC50).

The molecule `Clc1ccc(/N=N/c2c(-c3ccc(Br)cc3)[nH]c3ccccc23)cc1` [Compound 27] showed an IC50 in test [2] of 12.5 ± 0.2 µM.

As for `Brc1ccc(/N=N/c2c(-c3ccc(Br)cc3)[nH]c3ccccc23)cc1` [Compound 28], half-maximal inhibition in test [2] (IC50) was put at 8.6 ± 1.4 µM.

In the case of `Fc1ccc(/N=N/c2c(-c3ccc(F)cc3)[nH]c3ccccc23)cc1` [Compound 29], in test [2], the IC50 was found to be 11.6 ± 0.7 µM. This IC50 and that of the molecule before are within 1.5-fold of each other.

In the case of `COC(=O)n1c(Br)c(Br)c2ccccc21` [Compound 31], the “IC50 HeLa” value in test [2] is “Non-Toxic”.

The term MIC denotes the smallest concentration in the dilution series that meets the test's criterion for growth inhibition. `Cc1onc(-c2c(Cl)cccc2Cl)c1C(=O)N[C@@H]1C(=O)N2[C@@H]1SC(C)(C)[C@@H]2C(=O)O` [Dicloxicillin, reference compound]: the MIC in test [3] was 50 to 100 µg/mL (≈ 106 to 213 µM); in test [4] (setting [9]) it was 4 µg/mL (≈ 8.5 µM).

Regarding `C[C@H]1c2cccc(O)c2C(=O)C2=C(O)[C@]3(O)C(=O)C(C(N)=O)=C(O)[C@@H](N(C)C)[C@@H]3[C@@H](O)[C@@H]21` [Doxycycline, reference compound], the minimum inhibitory concentration (MIC) in test [3] is 3.12 µg/mL (≈ 7.02 µM); in test [4] (setting [9]), 0.25 to 0.5 µg/mL (≈ 0.563 to 1.13 µM); in test [5] (setting [10]) it was 3.12 µg/mL (≈ 7.02 µM).

Take `CC[C@H]1OC(=O)[C@H](C)[C@@H](O[C@H]2C[C@@](C)(OC)[C@@H](O)[C@H](C)O2)[C@H](C)[C@@H](O[C@@H]2O[C@H](C)C[C@H](N(C)C)[C@H]2O)[C@](C)(O)C[C@@H](C)C(=O)[C@H](C)[C@@H](O)[C@]1(C)O` [Erythromycin, reference compound]: the MIC is more than 32 µg/mL in test [4] (setting [11]), more than 1000 µg/mL in test [5] (setting [12]) and 30 µg/mL (≈ 40.9 µM) in test [5] (setting [13]). Moreover, the S/R result in test [4] (TABLE 24) is listed as “R”.

Turning to `O=[N+]([O-])c1ccc2[nH]c(-c3ccccc3)cc2c1` [INF-55, reference compound], the “IC50 HeLa” value in test [2] was “Non-Toxic”.

For the molecule `CC1(C)S[C@@H]2[C@H](NC(=O)Cc3ccccc3)C(=O)N2[C@H]1C(=O)O` [Penicillin G], in test [4] (TABLE 24), the S/R entry is “S”. In addition, the MIC in test [4] (common antibiotics, TABLE 24) worked out at 2 µg/mL (≈ 5.98 µM).

For `CN(C)[C@@H]1C(O)=C(C(N)=O)C(=O)[C@@]2(O)C(O)=C3C(=O)c4c(O)cccc4[C@@](C)(O)[C@H]3C[C@@H]12` [Tetracycline], the MIC in test [4] (setting [11]) is less than 0.5 µg/mL. Further, the S/R entry in test [4] (TABLE 24) was “S”.

As to `NC[C@H]1O[C@H](O[C@H]2[C@H](O)[C@@H](O[C@H]3O[C@H](CO)[C@@H](O)[C@H](N)[C@H]3O)[C@H](N)C[C@@H]2N)[C@H](N)C[C@@H]1O` [Tobramycin, reference compound], the MIC was 0.25 µg/mL (≈ 0.535 µM) in test [3], more than 200 µg/mL in test [4] (setting [9]) and more than 5000 µg/mL in test [5] (setting [10]).

In the case of Gentamycin [reference compound], the MIC was >100* μg/mL in test [6] (antibiotics, MRSA isolate ATCC 33591); >200* μg/mL in test [6] (setting [12]); less than 3.1 µg/mL in test [6] (antibiotics, MRSA isolate ATCC BAA-1707); 3.1 µg/mL in test [6] (setting [13]); less than 3.1 µg/mL in test [6] (antibiotics, MRSA isolate ATCC BAA-1720); 6.3 µg/mL in test [6] (antibiotics, MRSA isolate ATCC BAA-1747). Also, the minimal inhibitory concentration (MIC) in test [6] (antibiotics, MRSA isolate ATCC BAA-1754) is less than 3.1 µg/mL; in test [6] (antibiotics, MRSA isolate ATCC BAA-1761) it was less than 3.1 µg/mL; in test [6] (antibiotics, MRSA isolate ATCC BAA-1763), 3 to 6 µg/mL; in test [6] (antibiotics, MRSA isolate ATCC BAA-1764), less than 3.1 µg/mL; in test [6] (antibiotics, MRSA isolate ATCC BAA-1766) it was 12.5* μg/mL.

Take INF-55Cl [reference compound]: the “IC50 HeLa” value in test [2] is on record as “Non-Toxic”.

For the molecule Penicillin [reference compound], the MIC in test [6] (Penicillin, MRSA isolate ATCC BAA-44) is 1.6* mg/mL; in test [6] (Penicillin, MRSA isolate ATCC BAA-1717), 1* mg/mL.

The values above are taken from US9834514B2, “Antibiotic sensitivity-restoring and photosensitive agents” (New Mexico Tech Research Foundation, priority 2015, dated 2017).
